Experimental findings from patent US20240002354A1, “ANTIDIABETIC COMPOUNDS AND COMPOSITIONS” (REZUBIO PHARMACEUTICALS CO., LTD, priority 2020, published 2024) are described below.

The assay deals with T1, GPR40 (Homo sapiens, UniProt O14842).
T1 construct: expressed in transfected cells
Nature of the assay: IP1 accumulation assay (Cisbio IP-One HTRF) in HEK293 cells stably expressing GPR40. It is filed as cell-based. As to conditions: HEK293 cells stably expressing GPR40, 37° C. for 2 hours, % Effect relative to AMG-1638 positive control. The method, then: IP1 accumulation assay was used to evaluate the potency of compounds. HEK293 cells stably expressing GPR40 were cultured in 5% CO2 incubator (ThermoFisher) in maintenance media (Dulbecco's modified Eagle's medium with 4.5 g/L of glucose, 10% fetal bovine serum, 100 μg/mL Hygromycin, and Penicillin (100 U/mL)/Streptomycin (100 μg/mL)) till 100% confluency. Cells were harvested freshly, spun down at 300×g for 5 min, and resuspended in pre-warmed 1× stimulant buffer from Cisbio IP-One HTRF Detection kit (Cisbio). Cell density was adjusted to 2.0×10^6 cells/mL. DMSO was used as blank control and AMG-1638 (CAS #: 1142214-62-7) as positive control. Compounds were prepared at 10 mM in DMSO and 5 nL of 3× serially diluted compounds (10 concentrations) were added to each well of the 384-LDV assay plate (Corning) by using ECHO 550 (Labcyte). Five μL of cells in suspension were transferred into each well by using Multidrop Combi Reagent Dispenser (ThermoFisher). Assay plate was then sealed and incubated at 37° C. for 2 hours. IP-d2 reagent and anti-IP1 reagent were prepared following the manual (Cisbio). Five μL of IP1-d2 and then 5 μL of anti-IP1 antibody was added to each well sequentially. Assay plate was incubated at room temperature for 60 min and then read at 665 nm/615 nm on an Envision plate reader (PerkinElmer). The ratio of values obtained at 665 nm and 615 nm was used for calculation of IP1 accumulation: % Effect=(Ratiosample−Ratioblank)/(RatioAMG-1638−Ratioblank)×100. Dose curve was fitted and EC50 of each compound was calculated by using XLFit.

T1 sequence (O14842 whole entry): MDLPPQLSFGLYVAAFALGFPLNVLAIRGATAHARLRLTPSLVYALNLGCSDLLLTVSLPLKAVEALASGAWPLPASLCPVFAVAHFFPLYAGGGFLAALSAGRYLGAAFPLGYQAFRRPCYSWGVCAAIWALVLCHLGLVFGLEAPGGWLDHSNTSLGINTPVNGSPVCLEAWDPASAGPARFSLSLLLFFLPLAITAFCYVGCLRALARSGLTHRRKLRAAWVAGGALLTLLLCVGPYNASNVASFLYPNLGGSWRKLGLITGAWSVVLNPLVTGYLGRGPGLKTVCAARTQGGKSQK

The term EC50 denotes the concentration giving half of the maximal effect. Read a high EC50 as a need for much substance. Regarding “(2S,2'S,3R,3′R)-3,3′-((2R,2′R)-2,2′-(1,1′-(((1,1′-(26-(2-(bis(3-((2-aminoethyl)amino)-3-oxopropyl)amino) ethyl)-18,23,29,34-tetraoxo-19,22,26,30,33-pentaazahenpentacontane-1,51-diyl)bis(1H-1,2,3-triazole-4,1-diyl))bis(2-(trifluoromethoxy)-5,1-phenylene))bis(methylene))bis (piperidine-4,1-diyl))bis(chroman-7,2-diyl))bis(3-cyclopropyl-2-methylpropanoic acid) [compound 203]”, the 50% effective concentration (EC50) fell in the range of 0.05 to 0.25 µM.
